According to BindingDB's records for doi:10.1021/jm00095a003 (C.N.R.-Centro Studio Sostanze Organiche Naturali, 1992):

Tests used:
[1] = molecular target: T1, Muscarinic acetylcholine receptor (Cavia porcellus, UniProt Q8VH26); test: Dissociation constant at muscarinic acetylcholine receptor M3 guinea pig bladder.
[2] = molecular target: T1, Muscarinic acetylcholine receptor; test: Dissociation constant at muscarinic acetylcholine receptor M3 of guinea pig ileum.
[3] = molecular target: T1, Muscarinic acetylcholine receptor; test: Dissociation constant at muscarinic M3 receptors of guinea pig bladder.
[4] = molecular target: T1, Muscarinic acetylcholine receptor; test: Dissociation constant at muscarinic M3 receptors of guinea pig ileum.

T1 sequence (Q8VH26 whole entry): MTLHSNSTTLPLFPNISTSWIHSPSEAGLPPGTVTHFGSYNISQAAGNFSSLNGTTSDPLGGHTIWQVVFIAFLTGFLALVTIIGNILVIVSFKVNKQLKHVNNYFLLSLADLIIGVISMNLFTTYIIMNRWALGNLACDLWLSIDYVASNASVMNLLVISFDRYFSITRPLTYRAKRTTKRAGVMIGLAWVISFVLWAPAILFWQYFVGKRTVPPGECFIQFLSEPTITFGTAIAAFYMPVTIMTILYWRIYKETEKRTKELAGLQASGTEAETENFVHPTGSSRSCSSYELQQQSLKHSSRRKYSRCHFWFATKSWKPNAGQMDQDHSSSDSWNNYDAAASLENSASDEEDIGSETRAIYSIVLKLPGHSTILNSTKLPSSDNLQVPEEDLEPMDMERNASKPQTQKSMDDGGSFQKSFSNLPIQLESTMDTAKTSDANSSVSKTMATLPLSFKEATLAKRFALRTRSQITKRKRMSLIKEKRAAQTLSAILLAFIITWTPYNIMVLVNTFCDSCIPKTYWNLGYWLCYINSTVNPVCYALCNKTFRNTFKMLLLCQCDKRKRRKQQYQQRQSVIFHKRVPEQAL

SMILES	Kd [1] [µM]	Kd [2] [µM]	Kd [3] [µM]	Kd [4] [µM]
C[C@@H]1O[C@H](C[N+](C)(C)C)C[C@H]1O	24	1.12		
C[C@@H]1O[C@H](C[N+](C)(C)C)C[C@H]1F			40.7	1.91
